Strand notation (5' to 3'): a small letter for the sugar, then the base; units joined by * are phosphorothioate-linked, units joined directly phosphodiester-linked; [ ] holds rarer units or linkages, { } end groups; capitals alone tell only the bases. k = constrained ethyl (cEt); [5mC] = 5-methylcytosine; d = 2'-deoxy (DNA)
System: human SMAD7 mRNA
Assay: Antisense inhibition of human SMAD7 mRNA expression in Hep3B cells by 3-10-3 cEt gapmers, 10,000 nM, electroporation (Example 2)
Format: cell-based
Conditions: Hep3B cells, 10,000 nM antisense oligonucleotide, electroporation, approximately 24 hours, RT-PCR primer probe set RTS5062, relative to untreated control cells
Procedure, shortened: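 SMAD7 mRNA was measured by real-time PCR (RTS5062) with RiboGreen total-RNA normalization, about 24 h after 10,000 nM gapmer was delivered by electroporation into Hep3B cells at 20,000 per well. Gapmers were 16-mer 3-10-3 cEt, fully phosphorothioate; values are % inhibition versus untreated controls.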

In order of falling “% Inhibition” value:
1. 800075 (antisense kT*kA*kA*dT*dT*dT*dT*d[5mC]*d[5mC]*dT*d[5mC]*dA*dA*k[5mC]*kA*kG) [compound 800075]  55%
2. 800078 (antisense kA*k[5mC]*k[5mC]*dT*dT*dA*dA*d[5mC]*dA*dA*dA*dG*d[5mC]*kT*kT*k[5mC]) [compound 800078]  51%
3. 800094 (antisense kA*kT*kG*dG*dA*dA*d[5mC]*d[5mC]*dT*dT*dG*dA*dA*kG*kG*k[5mC]) [compound 800094]  49%
4. 800093 (antisense kT*kT*kG*dA*dA*dG*dG*d[5mC]*d[5mC]*dA*dG*d[5mC]*dT*k[5mC]*k[5mC]*kT) [compound 800093]  48%
5. 800095 (antisense kA*kG*kT*dT*dA*d[5mC]*dA*dG*dA*dT*d[5mC]*dT*dT*kT*k[5mC]*kA) [compound 800095]  47%
6. 800073 (antisense kT*kA*kA*dG*dT*dA*dG*dG*dA*dG*d[5mC]*d[5mC]*dA*kG*k[5mC]*kG) [compound 800073]  39%
7. 800077 (antisense k[5mC]*k[5mC]*kT*dT*dA*dA*d[5mC]*dA*dA*dA*dG*d[5mC]*dT*kT*k[5mC]*k[5mC]) [compound 800077]  36%
8. 800074 (antisense kG*kG*kG*d[5mC]*dA*dT*dT*d[5mC]*dT*dG*dA*d[5mC]*dT*k[5mC]*k[5mC]*kT) [compound 800074]  33%
9. 800096 (antisense kT*kG*kG*dA*dG*dT*dT*dA*d[5mC]*dA*dG*dA*dT*k[5mC]*kT*kT) [compound 800096]  32%
10. 800069 (antisense k[5mC]*kA*kT*dG*dG*d[5mC]*dG*dG*dA*dA*dG*dA*dT*kG*kG*kG) [compound 800069]  25%
11. 800076 (antisense k[5mC]*kG*k[5mC]*dT*dT*d[5mC]*d[5mC]*d[5mC]*dT*dA*d[5mC]*dA*d[5mC]*kA*kG*kT) [compound 800076]  25%
12. 800070 (antisense k[5mC]*k[5mC]*kA*dT*dG*dG*d[5mC]*dG*dG*dA*dA*dG*dA*kT*kG*kG) [compound 800070]  9%
13. 800071 (antisense kT*kG*kT*dA*dT*dT*dT*dG*dT*dT*dA*dA*d[5mC]*kA*kA*kA) [compound 800071]  2%
14. 800097 (antisense kG*k[5mC]*k[5mC]*dT*d[5mC]*dA*dA*dA*dA*dA*dG*d[5mC]*d[5mC]*kT*k[5mC]*kA) [compound 800097]  1%
15. 800098 (antisense kT*kT*kT*dT*dA*dG*dG*dG*d[5mC]*d[5mC]*dT*d[5mC]*dA*kA*kA*kA) [compound 800098]  1%
16. 800072 (antisense kG*kA*k[5mC]*dT*dT*dG*dG*dG*dA*d[5mC]*d[5mC]*dA*dT*kA*kA*kA) [compound 800072]  0%
17. 800089 (antisense kA*kG*kG*dA*dA*d[5mC]*d[5mC]*dT*dA*dT*d[5mC]*dT*dG*kG*kT*kA) [compound 800089]  0%
18. 800090 (antisense k[5mC]*kA*k[5mC]*d[5mC]*dT*dA*dT*dG*d[5mC]*dG*dA*dT*dG*kG*kT*k[5mC]) [compound 800090]  0%
19. 800091 (antisense kT*kG*kA*d[5mC]*dA*d[5mC]*dA*dG*d[5mC]*d[5mC]*dA*dG*dA*kG*k[5mC]*kT) [compound 800091]  0%
20. 800092 (antisense kA*kT*k[5mC]*d[5mC]*dT*dG*dA*dT*dG*dA*dG*dA*dA*kA*kA*k[5mC]) [compound 800092]  0%

Same assay, conditions: Hep3B cells, electroporation with 10,000 nM antisense oligonucleotide, approximately 24 hours, SMAD7 mRNA by RT-PCR (RTS5062), relative to untreated control cells

In order of falling “% Inhibition” value:
1. 800079 (antisense kT*kA*k[5mC]*d[5mC]*dT*dT*dA*dA*d[5mC]*dA*dA*dA*dG*k[5mC]*kT*kT) [compound 800079]  61%
2. 800084 (antisense kG*k[5mC]*k[5mC]*dA*dA*dA*dT*d[5mC]*dA*d[5mC]*dA*dA*d[5mC]*kA*kT*kG) [compound 800084]  57%
3. 800065 (antisense kT*kT*kA*dA*dG*dT*dA*dG*d[5mC]*dA*dG*d[5mC]*d[5mC]*kA*kG*kT) [compound 800065]  55%
4. 800088 (antisense kA*kA*kT*dG*dA*dG*dG*dG*dT*dG*dG*d[5mC]*dT*kT*kG*kG) [compound 800088]  54%
5. 800067 (antisense kA*kG*kG*dA*d[5mC]*d[5mC]*dT*dG*dG*dG*dA*dA*d[5mC]*k[5mC]*k[5mC]*kA) [compound 800067]  51%
6. 800086 (antisense kA*kG*k[5mC]*dA*dG*d[5mC]*dA*dG*d[5mC]*d[5mC]*d[5mC]*dT*dG*kT*kA*k[5mC]) [compound 800086]  40%
7. 800085 (antisense kA*kG*k[5mC]*dA*dG*d[5mC]*d[5mC]*d[5mC]*dT*dG*dT*dA*d[5mC]*kA*k[5mC]*kA) [compound 800085]  37%
8. 800068 (antisense kA*k[5mC]*kA*d[5mC]*dT*dA*dA*d[5mC]*dT*dG*dG*d[5mC]*dT*k[5mC]*k[5mC]*kA) [compound 800068]  34%
9. 800062 (antisense k[5mC]*k[5mC]*k[5mC]*d[5mC]*dA*dA*dG*d[5mC]*dT*dG*dG*d[5mC]*d[5mC]*kT*kT*k[5mC]) [compound 800062]  25%
10. 800102 (antisense kA*k[5mC]*kG*dA*dG*dA*d[5mC]*dA*dG*dA*dA*dA*dG*kA*kA*kG) [compound 800102]  21%
11. 800104 (antisense kA*kG*kG*dA*d[5mC]*dG*dA*dG*dA*d[5mC]*dA*dG*dA*kA*kA*kG) [compound 800104]  17%
12. 800105 (antisense kT*k[5mC]*k[5mC]*dT*dA*dG*dA*dA*dT*dG*dA*dA*dG*kA*k[5mC]*kA) [compound 800105]  17%
13. 800100 (antisense kT*kG*k[5mC]*dA*dG*dA*dG*d[5mC]*dA*d[5mC]*dA*dG*dA*kT*kG*k[5mC]) [compound 800100]  16%
14. 800080 (antisense kG*kG*kG*d[5mC]*dT*dA*d[5mC]*d[5mC]*dT*dT*dA*dA*d[5mC]*kA*kA*kA) [compound 800080]  14%
15. 800082 (antisense kG*k[5mC]*kA*dG*dA*d[5mC]*d[5mC]*dG*dG*dT*dA*dT*dT*kA*kA*k[5mC]) [compound 800082]  12%
16. 800106 (antisense k[5mC]*kA*kG*dA*dG*dA*dG*dG*dG*dT*dT*dA*dG*kT*kG*kG) [compound 800106]  12%
17. 800108 (antisense kG*kG*kA*dA*dT*d[5mC]*dT*dA*dG*dA*dA*dA*dA*k[5mC]*kA*k[5mC]) [compound 800108]  12%
18. 800083 (antisense kT*kG*k[5mC]*dA*dG*dA*d[5mC]*d[5mC]*dG*dG*dT*dA*dT*kT*kA*kA) [compound 800083]  11%
19. 800099 (antisense kT*kG*k[5mC]*dA*dA*dA*dG*dG*dG*dA*d[5mC]*d[5mC]*d[5mC]*kT*kT*kA) [compound 800099]  6%
20. 800103 (antisense kG*kG*kA*d[5mC]*dG*dA*dG*dA*d[5mC]*dA*dG*dA*dA*kA*kG*kA) [compound 800103]  4%
21. 800063 (antisense kG*k[5mC]*k[5mC]*dA*dT*dA*d[5mC]*dA*dA*dA*dT*dG*dT*kG*k[5mC]*kA) [compound 800063]  0%
22. 800064 (antisense kA*kT*kG*dG*dA*dG*dG*dT*dG*d[5mC]*d[5mC]*d[5mC]*dG*kT*k[5mC]*kA) [compound 800064]  0%
23. 800081 (antisense k[5mC]*kG*kG*dT*dA*dT*dT*dA*dA*d[5mC]*d[5mC]*d[5mC]*dG*kG*kG*k[5mC]) [compound 800081]  0%
24. 800087 (antisense kT*kA*kA*dT*dA*dG*dG*dA*dA*dA*dA*d[5mC]*dA*kG*kT*k[5mC]) [compound 800087]  0%
25. 800101 (antisense kA*kA*k[5mC]*dA*dA*dA*dG*d[5mC]*d[5mC]*dT*d[5mC]*dT*dT*k[5mC]*kT*k[5mC]) [compound 800101]  0%
26. 800107 (antisense kA*kA*kT*d[5mC]*dT*dA*dG*dA*dA*dA*dA*d[5mC]*dA*k[5mC]*kA*kT) [compound 800107]  0%

Same assay, conditions: SMAD7 mRNA, Hep3B cells, 10,000 nM antisense oligonucleotide, electroporation, approximately 24 hours, primer probe set RTS5062, relative to untreated control cells

In order of falling “% Inhibition” value:
1. 800793 (antisense kT*kG*kA*d[5mC]*dT*d[5mC]*dT*dT*dG*dT*dT*dG*dT*k[5mC]*k[5mC]*kG) [compound 800793]  53%
2. 800769 (antisense kG*k[5mC]*kA*dG*dG*d[5mC]*dG*dA*d[5mC]*dA*dG*d[5mC]*dA*kG*k[5mC]*kA) [compound 800769]  49%
3. 800771 (antisense k[5mC]*k[5mC]*k[5mC]*dG*d[5mC]*dA*dG*d[5mC]*dT*d[5mC]*dG*d[5mC]*d[5mC]*kT*k[5mC]*k[5mC]) [compound 800771]  46%
4. 800787 (antisense k[5mC]*kA*kG*dT*dA*dG*dA*dG*d[5mC]*d[5mC]*dT*d[5mC]*d[5mC]*k[5mC]*k[5mC]*kA) [compound 800787]  38%
5. 800776 (antisense kG*kA*kG*dG*d[5mC]*dA*d[5mC]*dG*d[5mC]*dG*dG*dT*dG*k[5mC]*kG*k[5mC]) [compound 800776]  36%
6. 800768 (antisense kG*k[5mC]*kG*d[5mC]*dT*d[5mC]*d[5mC]*dG*dT*dG*dG*d[5mC]*dA*kT*kG*k[5mC]) [compound 800768]  18%
7. 800786 (antisense kG*k[5mC]*kA*d[5mC]*d[5mC]*dA*dG*dT*dG*dT*dG*dA*d[5mC]*k[5mC]*kG*kA) [compound 800786]  0%

From US10517889B2, “Modulators of SMAD7 expression” (Ionis Pharmaceuticals, Inc., priority 2017, dated 2019)
